Source: US9779901B2, “High temperature material compositions for high temperature thermal cutoff devices” (Therm-O-Disc, Incorporated, priority 2008, dated 2017)
Read-outs that look alike come from different tables or passages of the source.

What was measured:
[1] = estimated melting point temperature ranges of candidate organic compounds (Table 2); some compounds have several values, partly in parentheses, because analytic techniques differ; cited from earlier work

Row | Structure (SMILES) | Melting Point [1] | Melting Point
1 | Nc1ccn(C2C=CC(N)C(C(=O)O)O2)c(=O)n1 (stereo not shown) [Example 35] | 244-245° ° C. | 244 to 245 °C
2 | O=Cc1c2ccccc2c(C=O)c2ccccc12 [Example 37] | 244-245° ° C. | 244 to 245 °C
3 | Nc1nc(N)nc(Cc2ccccc2)n1 [Example 39] | 245° ° C. | 245 °C
4 | Cn1cnc2ncn(C)c2c1=O [Example 41] | 245-246° ° C. | 245 to 246 °C
5 | O=c1[nH][nH]c2ccccc12 [Example 44] | 245-247° ° C. | 245 to 247 °C
6 | CC1(C)Oc2ccc(C#N)cc2[C@H](n2ccccc2=O)[C@H]1O [Example 45] | 245-246° ° C. | 245 to 246 °C
7 | Nc1ccc2c(c1)[nH]c1ccccc12 [Example 47] | 245-247° ° C. | 245 to 247 °C
8 | Nc1nnc2ccccn12 [Example 48] | 245-247° ° C. | 245 to 247 °C
9 | c1cc2n[nH]nc2cn1 [Example 50] | 246-247° ° C. | 246 to 247 °C
10 | Cc1c(C)c(CO)c(C)c(C)c1CO [Example 51] | 246-248° ° C. | 246 to 248 °C
11 | c1ccc2c(c1)-c1ccccc1C2C1c2ccccc2-c2ccccc21 [Example 56] | 246° ° C. | 246 °C
12 | C#C/C=C/C1C(O)CCCC12CCCC(CCCC#C)N2 (stereo not shown) [Example 60] | 247-250° ° C. | 247 to 250 °C
13 | CCNC(=O)c1cc2c(cn1)[nH]c1ccccc12 [Example 61] | 247-249° ° C. | 247 to 249 °C
14 | Oc1cc2c3ccccc3ccc2c2ccccc12 [Example 68] | 248-250° ° C. | 248 to 250 °C
15 | c1ccc(-c2nc(-c3ccccc3)c(-c3ccccc3)nc2-c2ccccc2)cc1 [Example 69] | 248° ° C. | 248 °C
16 | c1ccc2nc3nccnc3nc2c1 [Example 71] | 249° ° C. | 249 °C
17 | NNc1ccc(C(N)=O)nn1 [Example 72] | 249-250° ° C. | 249 to 250 °C
18 | O=[N+]([O-])c1ccc(NN=Cc2ccccc2Cl)cc1 [Example 73] | 249° ° C. | 249 °C
19 | O=C(C=Cc1ccccc1)NCCCCNC(=O)C=Cc1ccccc1 [Example 74] | 249-253° ° C. | 249 to 253 °C
20 | Nc1cccc2sc3ccccc3c(=O)c12 [Example 75] | 249-250° ° C. | 249 to 250 °C
21 | c1nc2nc3nc[nH]cc3n2n1 [Example 77] | 250° ° C. | 250 °C
22 | CN1Cc2cc(C3=NNC(=O)CC3)ccc2NC1=O [Example 79] | 250° ° C. | 250 °C
23 | CN(C)c1ccc(C(C)(C)C)cc1 [Example 82] | 250-253° ° C. | 250 to 253 °C
24 | CC(=O)Nc1cc2ccccc2c2ccc3ccccc3c12 [Example 83] | 250-251° ° C. | 250 to 251 °C
25 | NC(=O)C1c2ccccc2-c2ccccc21 [Example 86] | 251° ° C. | 251 °C
26 | Cc1cc2[nH]c3ccccc3c2cc1C [Example 87] | 251-253° ° C. | 251 to 253 °C
27 | C(#Cc1c2ccccc2c(C#Cc2ccccc2)c2ccccc12)c1ccccc1 [Example 88] | 251-253° ° C. | 251 to 253 °C

Row | Structure (SMILES) | Melting Point [1] | Melting Point
28 | O=c1ccc2ncc[nH]c-2c1 [Example 90] | 252-254° ° C. | 252 to 254 °C
29 | O=C1CCc2c1[nH]c1ccccc21 [Example 95] | 252-252.5° ° C. | 252 to 252.5 °C
30 | O=c1[nH]c(=S)oc2ccccc12 [Example 98] | 253° ° C. | 253 °C
31 | c1ccc2c(c1)[nH]c1ccc3cnccc3c12 [Example 99] | 254-255° ° C. | 254 to 255 °C
32 | Oc1c2ccc3ccccc3c2cc2ccc3ccccc3c12 [Example 101] | 254-256° ° C. | 254 to 256 °C
33 | Oc1ccc2cc3ccccc3cc2c1 [Example 103] | 254° ° C. | 254 °C
34 | Nc1nc2c([N+](=O)[O-])cccc2s1 [Example 105] | 254° ° C. | 254 °C
35 | CC1(C)CNC(=O)NC1 [Example 107] | 255-257° ° C. | 255 to 257 °C
36 | N#Cc1ccc2c(=O)c3ccccc3sc2c1 [Example 110] | 255-256° ° C. | 255 to 256 °C
37 | Oc1ccc(-c2cnc(-c3cccnc3)o2)cc1 [Example 115] | 255-256° ° C. | 255 to 256 °C
38 | CN1CC2CC(NC(=O)c3n[nH]c4ccccc34)CC(C1)N2C (stereo not shown) [Example 118] | 256-257° ° C. | 256 to 257 °C
39 | c1ccc(-c2ccnc(-c3cc(-c4ccccc4)cc(-c4cc(-c5ccccc5)ccn4)n3)c2)cc1 [Example 122] | 257-258° ° C. | 257 to 258 °C
40 | NC1=NCCC(CC(N)C(=O)O)N1 (stereo not shown) [Example 124] | 258-259° ° C. | 258 to 259 °C
41 | CC(=O)Nc1cnn2c(C)nc3ccccc3c12 [Example 125] | 258-260° ° C. | 258 to 260 °C
42 | O=[N+]([O-])c1nc2ccccc2[nH]1 [Example 127] | 258° ° C. | 258 °C
43 | c1cnc2[nH]cnc2n1 [Example 128] | 258-259° ° C. | 258 to 259 °C
44 | COc1cc(CCN(C)C)ccc1O [Example 129] | 258-260° ° C. | 258 to 260 °C
45 | Oc1cc2ccccc2c2cc3ccc4ccccc4c3cc12 [Example 130] | 258-259° ° C. | 258 to 259 °C
46 | c1ccc2c(c1)[nH]c1ccc3ccncc3c12 [Example 132] | 259-260° ° C. | 259 to 260 °C
47 | CCN(CCCCN)c1ccc2c(=O)[nH][nH]c(=O)c2c1 [Example 136] | 259-260° ° C. | 259 to 260 °C
48 | O=c1c(=C2Cc3cccc4cccc2c34)c2cccc3cccc1c32 [Example 137] | 259-260° ° C. | 259 to 260 °C
49 | O=c1cc2oc3ccccc3oc-2cc1=O [Example 138] | 260-261° ° C. | 260 to 261 °C
50 | O=c1ccc2c(cc3ccc4cccc5ccc2c3c45)c1=O [Example 139] | 260° ° C. | 260 °C
51 | O=C1C=Cc2c(ccc3c2ccc2ccccc23)C1=O [Example 142] | 260-261° ° C. | 260 to 261 °C
52 | O=C1C(=O)c2cc3ccccc3cc2-c2ccccc21 [Example 143] | 260-262° ° C. | 260 to 262 °C
53 | Cn1ccc(N)nc1=O [Example 145] | 260-265° ° C. | 260 to 265 °C
